# In US8664217B2, “Benzodiazepine compound and pharmaceutical composition” (Otsuka Pharmaceutical Co., Ltd., priority 2008, dated 2014):
# Structures can show the parent of a compound that is named as a salt.
# Molecular target: T1, human Kv1.5 channels (Homo sapiens, UniProt P22460)
# T1 construct: Full-length human Kv1.5 cDNA was cloned from a human heart cDNA library; expressed in transfected cells; host or cells: CHO-K1
# Experiment: Measurement of human Kv1.5 channel current by whole-cell patch clamp method (human Kv1.5-expressing CHO-K1 cell line)
# Assay type: cell-based
# Details: human Kv1.5-expressing CHO-K1 cells, step end current at +40 mV, test compound 0.1, 1, 10 μM
# Method: Pharmacological Test 1 (1) Production of Human Kv1.5-Expressing CHO-K1 Cell Lines
# CHO-K1 cell lines stably expressing human Kv1.5 channels were prepared in the following manner.
# Full-length human Kv1.5 cDNA was cloned from a human heart cDNA library (produced by Stratagene). The obtained human Kv1.5 sequence corresponds to the sequence described in FASEB J. 5, 331-337 (1991).
# The obtained human Kv1.5 cDNA was inserted into a plasmid encoding a CMV promoter and a G418 resistance marker to produce a Kv1.5 expression vector. The human Kv1.5 expression vector was transfected into CHO-K1 cells by the lipofectamine method. After culturing the cells in an F-12 medium (produced by Invitrogen Corp.) containing 10% FBS (produced by Invitrogen Corp.) for 3 or 4 days, the medium was replaced with a FBS-containing F-12 medium that included 1,000 μg/ml of G418 (produced by Invitrogen Corp.), and single colonies were isolated. The amount of Kv1.5 channel expression in the single colonies was quantified at the mRNA level by RT-PCR and then quantified at the protein level by western blotting. Finally, the expressed current was analyzed by patch clamp method. Cell lines expressing a current of 200 pA or more per cell were selected as channel-expressing cell lines for activity measurement by patch clamp method.
# (3) Measurement of Ion Channel Current by Patch Clamp Method (Human Kv1.5-Expressing CHO-K1 Cell Line)
# An experiment was carried out using a patch clamp setup at room temperature (20 to 26° C.). A perfusion chamber having a diameter of 20 mm (flow rate: about 5 ml/min) was mounted on the stage of a phase-contrast inverted microscope (produced by Nikon Corporation) placed on a vibration isolated table. A poly-L-lysine (produced by Sigma)-coated coverslip (diameter: 15 mm, produced by Matsunami Glass Ind., Ltd.) on which human Kv1.5-expressing cells were cultured was placed in the perfusion chamber.
# Depolarizing stimulation pulses were applied and ionic current was recorded by using a patch clamp amplifier (EPC-7 or EPC-7 PLUS, produced by HEKA) and a personal computer (manufactured by IBM Corp.) in which software for data acquisition and analysis of ion channel current (PULSE 8.77, produced by HEKA) was installed. The current was measured in the whole-cell configuration of the patch-clamp technique. The tip (resistance: 2 to 4 MΩ) of a borosilicate glass pipette (produced by Sutter Instrument Co.) was gently placed on the cell membrane by using a three-dimensional mechanical micromanipulator (produced by Shoshin EM Corporation). […] Subsequently, stronger suction was applied to break the cell membrane. The capacitative current derived from the cell membrane was corrected using a patch clamp amplifier. Subsequently, the series resistance (Rs) between the pipette and the interior of the cell was measured and corrected.
# The composition of the extracellular solution used is shown below. Unless otherwise specified, these components were obtained from Wako Pure Chemical Industries, Ltd.
# Each test compound was prepared as a 1000-fold concentrated stock solution that was dissolved in DMSO and then diluted in the extracellular solution.
# The composition of the electrode internal solution used is shown below. Unless otherwise specified, these components were obtained from Wako Pure Chemical Industries, Ltd.
# (5) Measurement of Human Kv1.5 Current
# While the membrane potential was bolded at −80 mV, depolarizing pulses (−80 mV for 0.05 seconds→+40 mV for 0.2 seconds →−40 mV for 0.2 seconds→−80 mV for 0.05 seconds) were applied at a stimulation frequency of 1 Hz to measure Kv1.5 channel current. More specifically, first, while perfusing an extracellular solution containing 0.1% DMSO and holding the membrane potential at −80 mV, depolarizing pulses were applied. The current obtained during the pulse application was recorded as a current in the absence of the test compounds. […]
# T1 sequence (P22460 whole entry): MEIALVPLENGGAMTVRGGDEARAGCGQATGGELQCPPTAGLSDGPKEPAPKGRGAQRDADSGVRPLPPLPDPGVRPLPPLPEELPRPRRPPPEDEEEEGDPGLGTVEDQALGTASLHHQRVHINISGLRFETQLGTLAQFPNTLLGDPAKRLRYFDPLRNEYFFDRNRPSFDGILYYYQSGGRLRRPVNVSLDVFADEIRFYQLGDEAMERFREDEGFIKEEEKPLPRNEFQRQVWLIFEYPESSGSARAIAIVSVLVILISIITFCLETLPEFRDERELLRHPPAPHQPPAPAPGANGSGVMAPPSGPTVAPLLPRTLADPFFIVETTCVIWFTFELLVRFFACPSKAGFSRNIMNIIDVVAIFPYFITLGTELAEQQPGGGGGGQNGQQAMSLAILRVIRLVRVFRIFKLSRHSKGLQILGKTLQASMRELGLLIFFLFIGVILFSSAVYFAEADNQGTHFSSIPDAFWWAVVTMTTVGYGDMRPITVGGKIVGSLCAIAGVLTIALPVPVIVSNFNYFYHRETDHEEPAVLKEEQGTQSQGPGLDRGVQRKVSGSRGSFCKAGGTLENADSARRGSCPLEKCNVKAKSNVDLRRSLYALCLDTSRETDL
row,Compound,IC50 [µM]
1,"CCN1C(=O)C(C)(C)C(=O)N(C)c2cc(OCCCN(CCn3ccc4occc4c3=O)Cc3cccnc3C)ccc21 [Example 575, 1-ethyl-3,3,5-trimethyl-7-(3-{(2-methylpyridin-3-ylmethyl)-[2-(4-oxo-4H-furo[3,2-c]pyridin-5-yl)ethyl]-amino}propoxy)-1,5-dihydrobenzo[b][1,4]diazepine-2,4-dione]",0.44
2,"CCN1C(=O)C(C)(C)C(=O)N(C)c2cc(OCCCN(CCn3ccc4sccc4c3=O)Cc3cccnc3C)ccc21 [Example 595, 1-ethyl-3,3,5-trimethyl-7-(3-{(2-methylpyridin-3-ylmethyl)-[2-(4-oxo-4H-thieno[3,2-c]pyridin-5-yl)ethyl]-amino}propoxy)-1,5-dihydrobenzo[b][1,4]diazepine-2,4-dione]",0.5
3,"CCN1C(=O)C(C)(C)C(=O)N(C)c2cc(OCCCN(CCc3cccnc3)S(=O)(=O)c3ccccc3)ccc21 [Example 628, N-[3-(1-ethyl-3,3,5-trimethyl-2,4-dioxo-2,3,4,5-tetrahydro-1H-benzo[b][1,4]diazepin-7-yloxy)propyl]-N-(2-pyridin-3-ylethyl)benzenesulfonamide hydrochloride]",0.98
4,"CCN1C(=O)C(C)(C)C(=O)N(C)c2cc(OCCCN(CCn3ccc4occc4c3=O)Cc3ccc(C)nc3C)ccc21 [Example 629, 7-(3-{(2,6-dimethylpyridin-3-ylmethyl)-[2-(4-oxo-4H-furo[3,2-c]pyridin-5-yl)ethyl]amino}propoxy)-1-ethyl-3,3,5-trimethyl-1,5-dihydrobenzo[b][1,4]diazepine-2,4-dione dihydrochloride]",0.76

# The remaining molecules from weak to strong by IC50, led by results:
row,IC50 [µM],Compound
1,1.1,"CCN1C(=O)C(C)(C)C(=O)N(C)c2cc(OCCCN(CCc3cccnc3)C(=O)c3ccccc3)ccc21 [Example 633, N-[3-(1-ethyl-3,3,5-trimethyl-2,4-dioxo-2,3,4,5-tetrahydro-1H-benzo[b][1,4]diazepin-7-yloxy)propyl]-N-(2-pyridin-3-ylethyl)benzamide hydrochloride]"
2,0.46,"CCN1C(=O)C(C)(C)C(=O)N(C)c2cc(OCCCN(CCn3ccc4occc4c3=O)Cc3cnccc3C)ccc21 [Example 590, 1-ethyl-3,3,5-trimethyl-7-(3-{(4-methylpyridin-3-ylmethyl)-[2-(4-oxo-4H-furo[3,2-c]pyridin-5-yl)ethyl]-amino}propoxy)-1,5-dihydrobenzo[b][1,4]diazepine-2,4-dione]"
3,0.36,"CCN1C(=O)C(C)(C)C(=O)N(C)c2cc(OCCCN(CCn3ccc4ccccc4c3=O)S(=O)(=O)c3ccccc3)ccc21 [Example 634, N-[3-(1-ethyl-3,3,5-trimethyl-2,4-dioxo-2,3,4,5-tetrahydro-1H-benzo[b][1,4]diazepin-7-yloxy)propyl]-N-[2-(1-oxo-1H-isoquinolin-2-yl)ethyl]benzenesulfonamide]"
4,0.33,"CCN1C(=O)C(C)(C)C(=O)N(C)c2cc(OCCCN(CCn3ccc4oc(C)cc4c3=O)Cc3cnccc3C)ccc21 [Example 573, 1-ethyl-3,3,5-trimethyl-7-{3-[[2-(2-methyl-4-oxo-4H-furo[3,2-c]pyridin-5-yl)ethyl]-(4-methylpyridin-3-ylmethyl)amino]propoxy}-1,5-dihydrobenzo[b][1,4]diazepine-2,4-dione]"
5,0.31,"CCCc1ncccc1CN(CCCOc1ccc2c(c1)N(C)C(=O)C(C)(C)C(=O)N2CC)CCn1ccc2oc(C)cc2c1=O [Example 611, 1-ethyl-3,3,5-trimethyl-7-{3-[[2-(2-methyl-4-oxo-4H-furo[3,2-c]pyridin-5-yl)ethyl]-(2-propylpyridin-3-ylmethyl)amino]propoxy}-1,5-dihydrobenzo[b][1,4]diazepine-2,4-dione dihydrochloride]"
